Assay results taken from patent US10017492B2 (KANGPU BIOPHARMACEUTICALS, LTD., priority 2014, dated 2018).
Like-named read-outs stand apart in the source and are kept apart here.

Legend:
[1] = test system: WSU-DLCL-2 cells (diffuse large B cell lymphoma cells); experiment: CTG cell proliferation assay, WSU-DLCL-2 cells; format: cell-based; settings: 72-120 hours, CellTiter-Glo, read-out: IC50 Value of WSU-DLCL2 Inhibition
Experimental: (§1) CTG Cell Proliferation Assay
(§2) Rec-1 cells (Mantle cell lymphoma cells) (ATCC, catalog number CRL-3004), Namalwa.CSN/70 cells (Burkitt lymphoma cells) (DSMZ, catalog number ACC-70), and WSU-DLCL-2 cells (diffuse large B cell lymphoma cells) (DSMZ, catalog number ACC-575) were seeded at (5-15)×10^3 per well to a 96-well plate with transparent bottom and white wall (Corning, catalog number CLS3903) containing specific medium. The plate was placed in an incubator and incubated for 24 hours at 37° C. under 5% CO2. Compounds were prepared as 150 mM stock solutions with DMSO (Sigma, catalog number 276855), and were diluted with the medium to the desired concentration (the final concentration of DMSO was 0.2%) and then were added to each well, incubated in an incubator for 72-120 hours at 37° C. under 5% CO2. Then, 100 μl CellTiter-Glo® cell activity assay reagent (Promega, catalog number G7570) was added to each well. Mixing proceeded for 10 minutes on a shaker to induce cytolysis. The 96-well plate was placed at room temperature for 10 minutes to make the luminous signal stable. A white base film was pasted at the bottom of the culture plate. EnSpire was used to test the plate.

[2] = test system: MM.1S cells (myeloma cells); experiment: Cell proliferation assay (MTS), MM.1S myeloma cells; format: cell-based; settings: Homo sapiens, MM1.S, 72 hours, read-out: IC50 values of MMIS Inhibition
Experimental: MM.1S cells (myeloma cells) (ATCC, catalog number CRL-2974) were seeded at 1.8×10^3 per well to a 96-well culture plate containing […] (Gibco, catalog number A10491-01), and were incubated in an incubator for 24 hours at 37° C. under 5% CO2. Compounds were prepared as 20 mM stock solutions with DMSO (Sigma, catalog number D2650), and were diluted with the medium to the desired concentration (the final concentration of DMSO was 0.5%) and then were added to each well, incubated in an incubator for 72 hours at 37° C. under 5% CO2. Then, 20 μL MTS (Promega, catalog number G3581) was added to each well, and further incubated for 1-4 hours in an incubator at 37° C. under 5% CO2. OD490 nm was detected with OD650 nm as reference. The control, a solution containing 0.5% DMSO medium, was as 0% inhibition. GraphPad Prism 5 was used, slope was allowed to change to make the dose-effect curve and IC50 values were calculated, shown in table 2 for details.

[3] = test system: Namalwa.CSN/70 cells (Burkitt lymphoma cells); experiment: CTG cell proliferation assay, Namalwa.CSN/70 cells; format: cell-based; settings: 72-120 hours, CellTiter-Glo, read-out: IC50 Value of Namalwa.CSN/70 Inhibition
Experimental: as §1, §2

[4] = test system: Rec-1 cells (Mantle cell lymphoma cells); experiment: CTG cell proliferation assay, Rec-1 cells; format: cell-based; settings: Homo sapiens, Rec1, 72-120 hours, CellTiter-Glo, read-out: IC50 Value of Rec-1 Inhibition
Experimental: as §1, §2

TNF-α = TNF-α activity inhibiting assay (LPS-stimulated peripheral blood, ELISA); format: cell-based, human; settings: Homo sapiens, compound 100 nM, diluted peripheral blood of healthy volunteers, LPS 10 ng/mL, 6 hours, read-out: Inhibitory Rate on TNF-α (%)
Experimental: TNF-α Activity Inhibiting Assay
Peripheral blood from healthy volunteers was collected and collected with EDTA anticoagulant tubes. After being diluted 5-fold with 1640 medium (Gibco, catalog number 11875-093, USA), the blood was added to 96-well cell culture plates (Costar, catalog number 3599, USA) and then treated with 10 μL solution of the compound of general formula (I) of the present invention in DMSO (Sigma, catalog number D2650, USA). The final concentration of the compound was 100 nM, and the final concentration of DMSO was 0.2%. After incubation for 60 minutes in an incubator at 37° C. under 5% CO2, 10 μL LPS (Sigma, catalog number L-2880, USA) was added to the reaction system, and the final concentration was 10 ng/mL. After further culturing for 6 hours in the incubator at 37° C. under 5% CO2, the supernatant was collected. The content of TNF-α was determined by ELISA (BD Biosciences, catalog number 555212, USA). Absorbance was detected at OD450 nm with a microplate reader, with OD 650 nm as reference. The control, a solution containing 0.2% DMSO medium, was as 0% inhibition. Raw data and standard curves were recorded. The four-parameter drug inhibition curve was plotted by XL-fit software and the inhibition rate of each compound was calculated, as shown in Table 1.

[5] = Homo sapiens, WSUDLCL2, WSU-DLCL-2 cells

Row | SMILES | IC50 [1, 5] [nM] | IC50 [2] [nM] | IC50 [3] [nM] | IC50 [4] [nM] | inhibition at 0.1 µM (TNF-α) [%] | IC50 ([1]; WSU-DLCL-2 cells) [nM]
1 | COc1ccc(F)c(CNc2cccc3c2CN(C2CCC(=O)NC2=O)C3=O)c1 (stereo not shown) [Compound A195, 3-(4-((2-fluoro-5-methoxybenzyl)amino)-1-oxoisoindolin-2-yl)piperidine-2,6-dione] | > 300000 | < 300 | > 300000 | < 100 | – | –
2 | COc1ccc(COc2cccc3c2CN(C2CCC(=O)NC2=O)C3=O)c(F)c1 (stereo not shown) [Compound A329, 3-(4-((2-fluoro-4-methoxybenzyl)oxy)-1-oxoisoindolin-2-yl)piperidine-2,6-dione] | > 300000 | < 300 | 401 to 300000 | < 100 | ≥ 50 | –
3 | COc1cccc(COc2cccc3c2CN(C2CCC(=O)NC2=O)C3=O)c1F (stereo not shown) [Compound A334, 3-(4-((2-fluoro-3-methoxybenzyl)oxy)-1-oxoisoindolin-2-yl)piperidine-2,6-dione] | > 300000 | < 300 | > 300000 | < 100 | ≥ 50 | –
4 | [2H][C@]1(N2Cc3c(NCc4ccc(OC)cc4F)cccc3C2=O)CCC(=O)NC1=O [Compound A356, (S)-3-deuterium-3-(4-((2-fluoro-4-methoxybenzyl)amino)-1-oxoisoindolin-2-yl)piperidine-2,6-dione] | 401 to 300000 | < 300 | 100 to 400 | < 100 | ≥ 50 | –
5 | [2H][C@]1(N2Cc3c(NCc4cccc(OC)c4F)cccc3C2=O)CCC(=O)NC1=O [Compound A357, (S)-3-deuterium-3-(4-((2-fluoro-3-methoxybenzyl)amino)-1-oxoisoindolin-2-yl)piperidine-2,6-dione] | 401 to 300000 | < 300 | 100 to 400 | < 100 | ≥ 50 | –
6 | O=C1CCC(N2Cc3c(NCc4cccc(CN5CCOCC5)c4F)cccc3C2=O)C(=O)N1 (stereo not shown) [Compound A381, 3-(4-((2-fluoro-3-(morpholinomethyl)benzyl)amino)-1-oxoisoindolin-2-yl)piperidine-2,6-dione] | 401 to 300000 | < 300 | > 300000 | < 100 | ≥ 50 | –
7 | O=C1CCC(N2Cc3c(NCc4ccc(CN5CCOCC5)cc4F)cccc3C2=O)C(=O)N1 (stereo not shown) [Compound A382] | < 100 | < 300 | > 300000 | < 100 | ≥ 50 | –
8 | O=C1CCC(N2Cc3c(NCc4cc(CN5CCOCC5)ccc4F)cccc3C2=O)C(=O)N1 (stereo not shown) [Compound A383, 3-(4-((2-fluoro-5-(morpholinomethyl)benzyl)amino)-1-oxoisoindolin-2-yl)piperidine-2,6-dione] | 401 to 300000 | < 300 | > 300000 | 100 to 400 | ≥ 50 | –
9 | O=C1CCC(N2Cc3c(OCc4ccc(CN5CCOCC5)cc4F)cccc3C2=O)C(=O)N1 (stereo not shown) [Compound A386, 3-(4-((2-fluoro-4-(morpholinomethyl)benzyl)oxy)-1-oxoisoindolin-2-yl)piperidine-2,6-dione] | < 100 | < 300 | > 300000 | < 100 | ≥ 50 | –
10 | O=C1CCC(N2Cc3c(OCc4cccc(CN5CCOCC5)c4F)cccc3C2=O)C(=O)N1 (stereo not shown) [Compound A399, 3-(4-((2-fluoro-3-(morpholinomethyl)benzyl)oxy)-1-oxoisoindolin-2-yl)piperidine-2,6-dione] | 401 to 300000 | < 300 | > 300000 | < 100 | ≥ 50 | –
11 | [2H][C@]1(N2Cc3c(NCc4cccc(CN5CCOCC5)c4F)cccc3C2=O)CCC(=O)NC1=O [Compound A400, (S)-3-deuterium-3-(4-((2-fluoro-3-(morpholinomethyl)benzyl)amino)-1-oxoisoindolin-2-yl)piperidine-2,6-dione] | 401 to 300000 | < 300 | > 300000 | 100 to 400 | ≥ 50 | –
12 | [2H][C@]1(N2Cc3c(NCc4ccc(CN5CCOCC5)cc4F)cccc3C2=O)CCC(=O)NC1=O [Compound A402] | < 100 | < 300 | > 300000 | < 100 | ≥ 50 | –
13 | [2H][C@]1(N2Cc3c(OCc4cc(CN5CCOCC5)ccc4F)cccc3C2=O)CCC(=O)NC1=O [Compound A403, (S)-3-deuterium-3-(4-((2-fluoro-5-(morpholinomethyl)benzyl)oxy)-1-oxoisoindolin-2-yl)piperidine-2,6-dione] | 401 to 300000 | < 300 | > 300000 | < 100 | ≥ 50 | –
14 | [2H][C@]1(N2Cc3c(OCc4cccc(CN5CCOCC5)c4F)cccc3C2=O)CCC(=O)NC1=O [Compound A404, (S)-3-deuterium-3-(4-((2-fluoro-3-(morpholinomethyl)benzyl)oxy)-1-oxoisoindolin-2-yl)piperidine-2,6-dione] | 401 to 300000 | < 300 | > 300000 | < 100 | ≥ 50 | –
15 | [2H][C@]1(N2Cc3c(OCc4ccc(CN5CCOCC5)cc4F)cccc3C2=O)CCC(=O)NC1=O [Compound A406, (S)-3-deuterium-3-(4-((2-fluoro-4-(morpholinomethyl)benzyl)oxy)-1-oxoisoindolin-2-yl)piperidine-2,6-dione] | < 100 | < 300 | > 300000 | < 100 | ≥ 50 | –
16 | O=C1CCC(N2Cc3c(OCc4ccc(CN5CCOCC5)cc4F)cc(F)cc3C2=O)C(=O)N1 (stereo not shown) [Compound A407] | 401 to 300000 | < 300 | > 300000 | < 100 | < 50 | –
17 | [2H]C1(N2Cc3c(OCc4ccc(CN5CC(C)OC(C)C5)cc4F)cccc3C2=O)CCC(=O)NC1=O (stereo not shown) [Compound A427, 3-deuterium-3-(4-((4-((2,6-dimethylmorpholino)methyl)-2-fluorobenzyl)oxy)-1-oxoisoindolin-2-yl)piperidine-2,6-dione] | – | < 300 | > 300000 | < 100 | ≥ 50 | 401 to 300000
18 | Nc1cc(F)cc2c1CN(C1CCC(=O)NC1=O)C2=O (stereo not shown) [Compound I-28, 3-(4-amino-6-fluoro-1-oxoisoindolin-2-yl)piperidine-2,6-dione] | > 300000 | < 300 | > 300000 | < 100 | > 50 | –
19 | Nc1cc(F)cc2c1CN([C@H]1CCC(=O)NC1=O)C2=O [Compound I-29] | > 300000 | < 300 | > 300000 | < 100 | > 50 | –
20 | Nc1cc(F)cc2c1CN([C@@H]1CCC(=O)NC1=O)C2=O [Compound I-30] | > 300000 | < 300 | > 300000 | < 100 | – | –
21 | [2H][C@]1(N2Cc3c(N)cc(F)cc3C2=O)CCC(=O)NC1=O [Compound I-31] | 401 to 300000 | < 300 | > 300000 | < 100 | > 50 | –
